In patent US20190240502A1, “METHODS, COMPOSITIONS AND APPARATUSES FOR TREATING PSORIASIS BY PHOTOTHERAPY” (Luma Therapeutics, Inc., priority 2016, published 2019):

Format: physicochemical
Method: In forming the dressing shown in FIGS. 19A and 19B, the gel may be heat cured (e.g., at between 30-40° C. for between 1-4 hours, e.g., 2 hours at 35° C.). As will be described in more detail below, a very high salt (e.g., MgCl2), such as between 5% and 50% (weight of salt to weight of gel total) may be added to the hydrogel. For example 10% MgCl2 may be used which may help keep the coal tar globules or clusters from dissolving into the gel. […] In the context of the dressings described herein, a decrease in U.V. transmittance may require a longer treatment time (given that power output from the light cannot be increased) or may make treatment with the dressing impossible or impractical. […] Typically the greater the percentage of MgCl2 the better the effect. However, 5% or more may be sufficient; if longer shelf life for the dressings (e.g., beyond one week, two weeks, three weeks, on month, two months, three months, six months, 1 year, etc.) is desired higher MgCl2 percentages (e.g., 7.5%, 10%, or more) may be used.

solubility of coal tar	Compound	effect of additive on coal tar solubility in hydrogel
	[Cl-].[Cl-].[Mg+2] [MgCl2]	lower coal tar solubility
	OC[C@@H](O)[C@@H](O)[C@H](O)[C@@H](O)CO [Sorbitol, sorbitol]	increased solubility of coal tar in water
low solubility	coal tar	
